According to the supplement of paper PMC10307832:

Experiments:
Test in all cases: relative viability (nuclei count vs DMSO), 5 days (fraction); higher = more cells survive
BAM7 + Bortezomib = compound: CCOC1=CC=CC=C1N=NC2=C(NN(C2=O)C3=NC(=CS3)C4=CC=CC=C4)C [BAM7] + CC(C)C[C@H](NC(=O)[C@H](Cc1ccccc1)NC(=O)c1cnccn1)B(O)O [Bortezomib] (partner 0.002 µM)
Outline: (§1)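 After 5 days of treatment, lung cancer cells in 1536-well plates were fixed and stained in a single step (final 0.05% Triton X-100, 1% formaldehyde, 1 ug/ml Hoechst) and their nuclei counted on 4× images. Treatment had been applied by pin tool the day after seeding as one drug alone or as a fixed anchor-drug dose with five library-drug doses (not always all listed) in √10 steps. Relative viability is the nuclei count of treated wells divided by that of vehicle wells, and values are medians of duplicate plates.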

[1] = compound: CCn1c(-c2nonc2N)nc2c(C#CC(C)(C)O)ncc(OC[C@H]3CCCNC3)c21 + NC(=O)Nc1cc(-c2cccc(F)c2)sc1C(=O)N[C@H]1CCCNC1 [AZD7762] (partner 0.2 µM)
Outline: as §1

BAM7 + Vorinostat = compound: CCOC1=CC=CC=C1N=NC2=C(NN(C2=O)C3=NC(=CS3)C4=CC=CC=C4)C [BAM7] + O=C(CCCCCCC(=O)Nc1ccccc1)NO [Vorinostat] (partner 1 µM)
Outline: as §1

[2] = compound: CCn1c(-c2nonc2N)nc2c(C#CC(C)(C)O)ncc(OC[C@H]3CCCNC3)c21 + N=C(N)NC(=N)NCCc1ccccc1 [Phenformin] (partner 250 µM)
Outline: as §1

| Cell Line | relative viability (BAM7 + Bortezomib; first compound 0.5 µM) | relative viability (BAM7 + Bortezomib; first compound 5 µM) | relative viability (BAM7 + Bortezomib; first compound 15.81 µM) | relative viability (BAM7 + Bortezomib; first compound 50 µM) | relative viability ([1]; first compound 0.01 µM) | relative viability ([1]; first compound 0.03162 µM) | relative viability ([1]; first compound 0.1 µM) | relative viability ([1]; first compound 0.3162 µM) | relative viability ([1]; first compound 1 µM) | relative viability (BAM7 + Vorinostat; first compound 0.5 µM) | relative viability (BAM7 + Vorinostat; first compound 5 µM) | relative viability (BAM7 + Vorinostat; first compound 15.81 µM) | relative viability (BAM7 + Vorinostat; first compound 50 µM) | relative viability ([2]; first compound 0.01 µM) | relative viability ([2]; first compound 0.03162 µM) | relative viability ([2]; first compound 0.1 µM) | relative viability ([2]; first compound 0.3162 µM) | relative viability ([2]; first compound 1 µM) |
| --- | --- | --- | --- | --- | --- | --- | --- | --- | --- | --- | --- | --- | --- | --- | --- | --- | --- | --- |
| NCI-H647 | 1.11 | 0.936 | 1.03 | 1.1 | 0.433 | 0.437 | 0.45 | 0.423 | 0.486 | 0.4 | 0.532 | 0.556 | 0.712 | 0.595 | 0.573 | 0.554 | 0.399 | 0.345 |
| NCI-H2085 | 1.07 | 1.12 | 0.979 | 1.16 | 0.966 | 0.982 | 1.01 | 0.954 | 1 | 0.824 | 0.654 | 0.74 | 0.822 | 0.627 | 0.694 | 0.674 | 0.706 | 0.719 |
| NCI-H727 | 0.832 | 1.14 | 0.916 | 0.739 | 0.586 | 0.6 | 0.768 | 0.631 | 0.576 | 1.42 | 1.09 | 0.942 | 0.839 | 0.468 | 0.461 | 0.618 | 0.515 | 0.502 |
| NCI-H441 | 0.48 | 0.453 | 0.464 | 0.447 | 1.11 | 1.17 | 1 | 0.988 | 1.1 | 1.1 | 0.607 | 0.762 | 0.773 | 0.824 | 0.888 | 0.833 | 0.801 | 0.715 |
